How the values were obtained:
PTH1R-Y134S [1] = target: T1, PTH1R-Y134S (Homo sapiens, UniProt Q03431, Y134S); assay: cAMP time course with ligand and after ligand washout (duration), Gs22a cells; type: cell-based; conditions: 10 nM, 30 min pretreatment
Procedure: (§3) Data are means (±SEM) of five (a), four (b, c, e) or three (d) separate experiments.
(§4) Fig. 7 Effects of Eiken mutation on duration of cAMP signaling and desensitization to ligand re-challenge. a Assays were performed in Gs22a cells transiently transfected to express PTH1R-WT or a mutant PTH1R. a Duration of initial cAMP signaling response. […] Response to Ligand rechallenge. After the washout-periods shown in panel a, the cells were rechallenged with the same ligand (1.0 nM) for 60 min and cAMP accumulation was assessed. […] P values indicate comparison by Student’s t test to pre-vehicle treatment: Data are means ± SEM from four separate experiments each in duplicate (b) or quadruplicate (a).
(§5) Basal and ligand-stimulated cAMP signaling was assessed via the glosensor cAMP reporter in Gs22a cells transiently transfected to express either the WT or a mutant hPTH1R in white 96-well plates at room temperature. […] The plate was then placed into a PerkinElmer Envision plate reader and luminescence, as counts per second (cps), was measured at 2-min intervals for 15 min, during which time luciferin uptake occurred and luminescence reached a near steady-state baseline level. The plate was then removed from the plate reader, CIDB alone (vehicle) or containing a test ligand at varying concentrations was added, and luminescence was again measured at 2 min intervals for an additional 30–60 min. […]

PTH1R-E35K [2] = target: T2, PTH1R-E35K (Homo sapiens, UniProt Q03431, E35K); assay: BRET β-arrestin2 recruitment to early endosomes (rGFP-FYVE), HEK293; type: cell-based
From the text: (§1) Images are representative of three independent experiments.
(§2) Scale bars in a and c indicate 10 μm.

PTH1R-E35K [3] = target: T2, PTH1R-E35K; assay: cAMP time course with ligand and after ligand washout (duration), Gs22a cells; type: cell-based; conditions: 10 nM, 30 min pretreatment
Procedure: as §3, §4, §5

PTH1R-E35K [4] = target: T2, PTH1R-E35K; assay: BRET β-arrestin2 recruitment to plasma membrane (rGFP-CAAX), HEK293; type: cell-based
From the text: as §1, §2

PTH1R-E35K [5] = target: T2, PTH1R-E35K; assay: Fluorescence microscopy of ligand internalization and β-arrestin2YFP recruitment, GBR-24 cells, ImageJ; type: cell-based
From the text: as §1, §2

PTH1R-Y134S [6] = target: T1, PTH1R-Y134S; assay: as above; type: cell-based
From the text: as §1, §2

PTH1R-R485X [7] = system: PTH1R-R485X
Procedure: as §1
Data are representative of three independent experiments (a-d); or means ± SEM of three or four independent experiments (e, f). Bar heights in graphs of panels b and d indicate the means ± SEM of counts from the five cells shown by the individual data points. Scale bars in a and c indicate 10 μm.
Ligand-induced recruitment of β-arrestin2^YFP was assessed in GBR-24 cells, which are HEK293/glosensor (Gs22A)-derived cells stably expressing β-arrestin2^YFP [42]. The cells in six-well plates were transiently transfected with plasmid DNA encoding PTH1R-WT or mutant derivative, and 24 hours later seeded onto glass coverslips in 6-well plates. […] In some experiments, the cells were imaged by confocal microscopy using a Leica DMi8 inverted Microscope at ×400 magnification, and the images were processed using Leica Application Suite X (LAS X) software. Regions of interest were digitally expanded 3-5X to improve views.
Quantification of β-arrestin2^YFP clusters was performed using ImageJ software (vers. 1.53)[67]. The color images were converted to 8 bit and then 16 bit gray-scale, and the threshold was adjusted on a cell-by-cell basis to show distinct particles (interpreted as clusters of β-arrestin2^YFP in intracellular vesicles); threshold values ranged from ~ 20-60. The free-hand tool was used to define the area analyzed for each cell, and the Analyze Particle tool was used to obtain the number of particles, the total area, and the mean gray scale (intensity) of each particle for each cell.

PTH1R-WT [8] = target: T3, PTH1R-WT (Homo sapiens, UniProt Q03431); assay: Fluorescence microscopy of ligand internalization and β-arrestin2YFP recruitment, GBR-24 cells, ImageJ; type: cell-based; conditions: 30 min
From the text: as §1, §2

PTH1R-H223R [9] = target: T4, PTH1R-H223R (Homo sapiens, UniProt Q03431, H223R); assay: as above; type: cell-based; conditions: 10 nM, 30 min
From the text: as §1

PTH1R-R485X [10] = conditions: PTH(1-34) 1 nM
Procedure: was added and moni t or i ng c ont i nued f or an addi t i onal 30 mi nut es .
shown in panel a. c) Cel l s wer e pr et r eat ed f or 15 mi nut es wi t h ei t her DMSO or Dy ngo4a ( 30 uM) , t hen
mi nut es ( agoni s t-was hout phas e) . T he AUCs of t he 90-mi nut e agoni s t-was hout r es pons es f or eac h
wi t h v ehi c l e dur i ng t he agoni s t-was hout phas e ( 100%) .

PTH1R-H223R [11] = target: T4, PTH1R-H223R; assay: Inverse agonist effect on basal cAMP, Gs22a cells; type: cell-based; conditions: 100 nM
From the text: Minutes Minutes [PTHrP(7-36)] Log M
+Veh. +SW +Veh. +SW +Veh.+SW +Veh. +SW +SW
DMSO Dyngo+Veh. DMSO Dyngo+Veh. DMSO Dyngo+Veh. DMSO Dyngo+Veh. DMSO DMSO Dyngo+Veh.Dyngo+SW
Suppl ement al Fi gure 9.
Dat a f or PT H1R-H223R and
DMSO+PTHrP(7-36) Dyngo+Veh. Dyngo+PTHrP(7-36) DMSO+Veh. DMSO+SW106Dyngo+Veh. […] DMSO+SW106Dyngo+Veh. Dyngo+SW106 PTH1R-R485X DMSO+Veh. DMSO+SW106Dyngo+Veh. Dyngo+SW106 ##* DMSO+Veh. DMSO+SW106Dyngo+Veh. Dyngo+SW106 ##*** DMSO+Veh. DMSO+SW106Dyngo+Veh. Dyngo+SW106 PTH1R-H223R)

PTH1R-R485X [12] = conditions: 100 nM
Procedure: Data are means ± SEM of three separate experiments, with triplicate wells in each.
Basal and ligand-stimulated cAMP signaling was assessed via the glosensor cAMP reporter in Gs22a cells transiently transfected to express either the WT or a mutant hPTH1R in white 96-well plates at room temperature. […] The plate was then placed into a PerkinElmer Envision plate reader and luminescence, as counts per second (cps), was measured at 2-min intervals for 15 min, during which time luciferin uptake occurred and luminescence reached a near steady-state baseline level. The plate was then removed from the plate reader, CIDB alone (vehicle) or containing a test ligand at varying concentrations was added, and luminescence was again measured at 2 min intervals for an additional 30–60 min.

PTH1R-WT [13] = target: T3, PTH1R-WT; assay: Visualization of surface receptors after PTH(1-34)FAM pre-stimulation; type: cell-based; conditions: 30 nM, 30 min, RT
Procedure: (§6) To visualize receptors on the surface of non-stimulated cells, cells were fixed with 3.7% paraformaldehyde for 5 min at room temperature, incubated for 1 hour at room temperature with anti-HA mouse monoclonal primary antibody (anti-HA.11, BioLegend, Cat. No. 901513), rinsed, incubated for 1 h at room temperature with a goat-anti-mouse IgG secondary antibody poly-conjugated to HRP (poly-HRP-anti-mIgG; ThermoFisher Scientific, Cat. No. 32230), stained with Tyramide-Alexafluor-594 (Tyr^594; Tyramide SuperBoost Kit ThermoFisher Scientific, Cat. No. B4092), then mounted on a glass microscope slide in Vectashield containing DAPI and imaged using a Nikon Eclipse fluorescence microscope at 400X magnification.

PTH1R-R485X [14] = conditions: 30 nM, 30 min, RT
Procedure: as §6

[15] = 30 nM TMR ligand (unlabeled: 10 nM), 30 min

Substance: AVSEIQL L H D KGKSIQD L R R R FFL H H L IAEIH TAEI.N H2 [Ile^5-PTHrP(1-36)]
- duration of cAMP response vs His5-PTHrP(1-36), in words (PTH1R-Y134S [1]): more sustained cAMP signaling response
- potency ratio vs PTHrP(1-36) (PTH1R-E35K [2]): ~10 fold
- potency vs PTH(1-34), in words (PTH1R-E35K [2]): as potent as PTH(1-34)
- duration of cAMP response vs His5-PTHrP(1-36), in words (PTH1R-E35K [3]): more sustained cAMP signaling response
- potency ratio vs PTHrP(1-36) (PTH1R-E35K [4]): ~10 fold
- potency vs PTH(1-34), in words (PTH1R-E35K [4]): as potent as PTH(1-34)
- co-clustering of β-arrestin2YFP, in words (PTH1R-E35K [5]; 10 nM unlabeled peptide): r obust co-clust ering
- co-clustering of β-arrestin2YFP, in words (PTH1R-Y134S [6]; 10 nM unlabeled peptide): r obust co-clust ering
- co-clustering of β-arrestin2YFP, in words (PTH1R-R485X [7]; 10 nM unlabeled peptide): not

Substance: AVSEIQL L H D KGrKSIQD L R R R FFL H H L IAEIH TAEI.N H 2 [Ile^5-PTHrP(1-36)^TMR]
- co-clustering of β-arrestin2YFP with ligand in endosomes, in words (PTH1R-WT [8]; 30 nM TMR ligand (unlabeled: 10 nM)): robust co-clustering of β-arrestin2^YFP
- co-clustering of β-arrestin2YFP with ligand in endosomes, in words (PTH1R-E35K [5]; [15]): robust co-clustering of β-arrestin2^YFP
- co-clustering of β-arrestin2YFP with ligand in endosomes, in words (PTH1R-Y134S [6]; [15]): robust co-clustering of β-arrestin2^YFP
- co-clustering of β-arrestin2YFP with ligand in endosomes, in words (PTH1R-R485X [7]; [15]): remained dispersed in the cytoplasm

Substance: AVSEIQLnLHNLGrKH L ASVERnLQWLRKKLQDVHNF.NH2 [PTH(1-34)^TMR]
- co-localization of ligand clusters with β-arrestin2YFP, in words (PTH1R-H223R [9]): co-localized with β-arrestin2^YFP
- co-localization of ligand clusters with β-arrestin2YFP, in words (PTH1R-WT [8]; 10 nM): co-localized with β-arrestin2^YFP
- co-localization of ligand clusters with β-arrestin2YFP, in words (PTH1R-E35K [5]; 10 nM, 30 min): co-localized with β-arrestin2^YFP
- co-localization of ligand clusters with β-arrestin2YFP, in words (PTH1R-Y134S [6]; 10 nM, 30 min): co-localized with β-arrestin2^YFP
- co-localization of ligand clusters with β-arrestin2YFP, in words (PTH1R-R485X [7]; 10 nM, 30 min): did not co-localize in clusters

Substance: LLHDLdWKSIQD L R R R FWL H H L IAEIH TAEY.N H 2 [dTrp^12-PTHrP(7-36), [Leu^11,dTrp^12,Trp^23,Tyr^36]-PTHrP(7–36)NH2]
- inhibition of subsequently added PTH(1-34) cAMP signaling, in words (PTH1R-R485X [10]): dose-dependent inhibition of cAMP signaling
- effect on basal cAMP, in words (PTH1R-H223R [11]): rapid decreases in the intracellular cAMP levels
- effect on basal cAMP, in words (PTH1R-R485X [12]): rapid decreases in the intracellular cAMP levels

Substance: SVSEIQL MH N L GfKH L N SMER VEWL R KKL QD VH N F.OH [PTH(1-34)FAM]
- ligand internalization, in words (PTH1R-WT [13]): observed mainly in internalized clusters
- ligand internalization, in words (PTH1R-R485X [14]): observed mainly in internalized clusters
